Holding throughout (format): cell-based
The target of test [1] is T1, acidic sphingomyelinase (aSMase) (Homo sapiens, UniProt P17405).
T1 construct: endogenous in cells; host or cells: HT 29 (human adenocarcinoma cell line)
T1 sequence (P17405 47-631): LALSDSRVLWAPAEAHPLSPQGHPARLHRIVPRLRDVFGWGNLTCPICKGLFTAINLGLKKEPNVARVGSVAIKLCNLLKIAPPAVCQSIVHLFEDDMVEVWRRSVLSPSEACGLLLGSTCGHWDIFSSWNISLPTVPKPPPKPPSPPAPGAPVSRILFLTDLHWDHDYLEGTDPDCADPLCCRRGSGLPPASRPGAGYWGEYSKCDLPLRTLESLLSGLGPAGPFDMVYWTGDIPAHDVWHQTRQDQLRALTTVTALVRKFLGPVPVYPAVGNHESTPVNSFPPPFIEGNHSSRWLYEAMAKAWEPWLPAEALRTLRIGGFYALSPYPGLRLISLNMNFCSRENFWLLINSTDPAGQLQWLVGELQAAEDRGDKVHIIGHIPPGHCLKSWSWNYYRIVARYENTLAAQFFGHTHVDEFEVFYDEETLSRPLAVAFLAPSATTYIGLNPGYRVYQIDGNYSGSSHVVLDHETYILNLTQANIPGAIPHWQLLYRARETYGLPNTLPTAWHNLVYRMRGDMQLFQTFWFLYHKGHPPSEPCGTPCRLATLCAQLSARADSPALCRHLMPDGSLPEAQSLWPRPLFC
Briefly: SMase activity determination (activation of aSMase in cells, NBD-sphingomyelin hydrolysis). The settings on record: HT 29 cells, mean (MW), basal activity 278,4 ± 41,3, unit only printed. How it is done:
Activities of aSMase and nSMase were determined by hydrolysis of a fluorogenic C12-analogue substrate [(7-Nitro-2-1,3-benzoxadiazol-4-yl)amino-dodecyl-D-erythro-sphingosine, NBD-sphingomyelin, Molecular Probes, subsequent separation of the labelled NBD ceramide analog by thin layer chromatography and data analysis at conditions as described in detail previously.
(§1) Induction of apoptosis was determined in the human adenocarcinoma cell line HT 29 as described in Example 1; spontaneous apoptosis rate was 2.48 % ± 0.58. The activation of acidic sphingomyelinase (aSMase) was analyzed in the same cell line as described in Example 1, basal activity amounts to 278,4 pmolµg^-1min^-1 ± 41,3.

Test [2] concerns human adenocarcinoma cell line HT 29. Briefly: Induction of apoptosis (YOPRO-1 / Hoechst 33342 staining, count of apoptotic cells). The settings on record: HT 29 cells, mean (MW), spontaneous apoptosis rate 2.48 % ± 0.58, unit only printed. How it is done: (§2) Human colon carcinoma cells HT-29 were purchased from ATCC and cultivated under standard conditions (37°C, 5% CO2, McCoy 5A medium, 10% fetal calf serum, penicillin, streptomycin). For experimentation, cells were seeded in cell culture dishes at appropriate density, stimulated and analysed as described in the following section.
Apoptotic macrophages and colon carcinoma cells were identified by microscopic observation of typical morphological changes (blebbing, generation of apoptotic bodies) and quantitated by YOPRO-1 staining and Hoechst 33342 dye. The percentage of apoptotic cells was counted using a microscope fitted with mercury light source and fluorescence assembly in combination with a computer-assisted morphometry system. Apoptosis was confirmed by PARP cleavage detected by Western Blotting and single cell electrophoresis (COMET-assay).
as §1

In test [3] the test system is HT-29 colon carcinoma cells. Briefly: Proliferation (DNA synthesis, colorimetric BrdU-ELISA). The note with it: Homo sapiens. As to the method: as §2
Quantitative determination of DNA synthesis in replicating cells was analyzed using commercial available test kits (colorimetric BrdU-ELISA, Roche-Diagnostics) according to the manufacturer's instructions. For these experiments, HT-29 colon carcinoma cells were seeded in 96-well plates at 40% confluence, cultivated overnight (1% FCS), incubated for 16 h with the test compounds (concentration range: three orders of magnitude), pulsed labelled with BrdU and fixed. The amount of incorporated BrdU was analysed using specific antibodies (Roche Diagnostics, Mannheim, Germany) and subsequent colorimetric reaction. The rate of DNA-synthesis in untreated control cells with standard medium was determined and compared with that in a medium contained the test compounds.
Semiconfluent HT-29 cells were incubated with compound 4 at concentration as indicated over night and DNA synthesis was analyzed on the basis of BrdU-incorporation and subsequent immunological quantification. Compound 4 inhibited cellular proliferative activity with an apparent IC50 of among 6,7 µM. […] Due to previous calculation using dependent variables over several orders of magnitudes, no standard deviation is given in Table 1 presenting the averaged half maximal concentrations for inhibition of proliferative activity.

[4] abbreviates: HT-29 cells, BrdU incorporation, averaged half maximal concentrations, no standard deviation, read-out: Anti-Prolif. IC50.
[5] abbreviates: semiconfluent HT-29 cells, incubation over night, BrdU-incorporation, read-out: apparent IC50 / half maximal antiproliferative activity.

Structures are written as SMILES. Read-outs that look alike come from different tables or passages of the source.

In the case of `CCCCCCCCCCCCC/C=C/[C@@H](O)[C@H](CO)NC(=O)CCCCC` [Ceramide C6, reference compound], in test [1], the “aSMase-activity 5 μM MW” value is on record as 427,3 pmolµg^-1min^-1 and the “aSMase-activity 20 μM MW” value was 743,4 pmolµg^-1min^-1. Moreover, in test [2], the “Induction of apoptosis 5 μM MW” value is reported as 2,6%, the “Induction of apoptosis 10 μM MW” value is given as 6,4% and the “Induction of apoptosis 30 μM MW” value is listed as 12,4%. In addition, the IC50 in test [3] (setting [4]) worked out at 4 µM. Moreover, the IC50 in test [3] (setting [5]) is ~4 µM.
For `CC(C)(C)OC(=O)N1[C@H]([C@H](O)/C2=C/CCCCCC2)COC1(C)C` [Compound 5, (S)-4-[(R)-((E)-Cyclooct-1-enyl)-hydroxy-methyl]-2,2-dimethyloxazolidine-3-carboxylic acid tert-butyl ester], in test [1], the “aSMase-activity 5 μM MW” value was 447,3 pmolµg^-1min^-1 and the “aSMase-activity 20 μM MW” value is 967,3 pmolµg^-1min^-1. Further, in test [2], the “Induction of apoptosis 5 μM MW” value is listed as 6,4%, the “Induction of apoptosis 10 μM MW” value was 7,7% and the “Induction of apoptosis 30 μM MW” value is 9,2%. Besides, the IC50 in test [3] (setting [4]) amounted to 3.2 µM.
`CCCCCC(=O)N[C@@H](CO)[C@H](O)C1=CCCC1` [Compound 2, Hexanoic acid ((1S,2R)-2-cyclopent-1-enyl-2-hydroxy-1-hydroxymethyl-ethyl)-amide]: in test [1], the “aSMase-activity 5 μM MW” value is reported as 347,0 pmolµg^-1min^-1 and the “aSMase-activity 20 μM MW” value is listed as 1185,4 pmolµg^-1min^-1. Moreover, in test [2], the “Induction of apoptosis 5 μM MW” value is 15,7%, the “Induction of apoptosis 10 μM MW” value is reported as 4,9% and the “Induction of apoptosis 30 μM MW” value was 5,9%. Also, in test [3] (setting [4]), the IC50 was 4.6 µM.
On to `CCCCCC(=O)N[C@@H](CO)[C@H](O)/C1=C/CCCCCC1` [Compound 3, Hexanoic acid [(1S,2R)-2-((E)-cyclooct-1-enyl)-2-hydroxy-1-hydroxymethyl-ethyl]-amide], for which, in test [1], the “aSMase-activity 5 μM MW” value is on record as 403,8 pmolµg^-1min^-1 and the “aSMase-activity 20 μM MW” value is listed as 1108,4 pmolµg^-1min^-1. In test [2], the “Induction of apoptosis 5 μM MW” value is reported as 2,9%, the “Induction of apoptosis 10 μM MW” value is given as 7,4% and the “Induction of apoptosis 30 μM MW” value was 5,7%. Also, the IC50 in test [3] (setting [4]) came to 3.1 µM.
Regarding `CCCCCC(=O)N[C@@H](CO)[C@@H](O)c1ccc([N+](=O)[O-])cc1` [Compound 1, Hexanoic acid [(1S,2S)-2-hydroxy-1-hydroxymethyl-2-(4-nitrophenyl)-ethyl]-amide], in test [1], the “aSMase-activity 5 μM MW” value was 541,3 pmolµg^-1min^-1 and the “aSMase-activity 20 μM MW” value is 631,0 pmolµg^-1min^-1. Further, in test [2], the “Induction of apoptosis 5 μM MW” value is listed as 1,3%, the “Induction of apoptosis 10 μM MW” value was 8,4% and the “Induction of apoptosis 30 μM MW” value was 8,9%. Further, in test [3] (setting [4]), the IC50 is 2.4 µM.
Take `CC(C)(C)OC(=O)N1[C@H]([C@H](O)C2=CCCC2)COC1(C)C` [Compound 4, (S)-4-((R)-Cyclopent-1-enyl-hydroxy-methyl)-2,2-dimethyloxazolidine-3-carboxylic acid tert-butyl ester]: in test [1], the “aSMase-activity 5 μM MW” value is 574,2 pmolµg^-1min^-1 and the “aSMase-activity 20 μM MW” value was 812,7 pmolµg^-1min^-1. In test [2], the “Induction of apoptosis 5 μM MW” value is on record as 3,95%, the “Induction of apoptosis 10 μM MW” value was 8,5% and the “Induction of apoptosis 30 μM MW” value is recorded as 10,2%. In addition, the IC50 in test [3] (setting [4]) was determined as 6.7 µM. In addition, in test [3] (setting [5]), the IC50 was ~6.7 µM.

These data come from patent publication EP1580187A1, “Apoptogenic and antiproliferative analogs of ceramide” (Deigner, Hans-Peter, priority 2004, dated 2005).
